Test results taken from article PMC9743094, “Synthesis and Evaluation of Polymyxins Bearing Reductively Labile Disulfide-Linked Lipids” (Journal of Medicinal Chemistry, 2022).
In brackets after ≈: the same amount, converted by molar mass. Positions of bridges follow the written chain, without caps; N, C: chain ends. Non-standard residues stand in square brackets, D forms with d. Residues, ends and D or L forms follow the SMILES beside them. *: point of attachment. S(2-cyclohexylethyl) = C1CCC(CCS*)CC1; X3 = c1ccc(Oc2ccc(CS*)cc2)cc1; X5 = c1ccc(-c2ccc(CS*)cc2)cc1; S(3-Methylbutyl) = CC(C)CCS*; Dab = NCC[C@H](N)C(=O)O; X1 = CC(C)CCCCS*; X4 = CCCCCCS*

Columns and labels:
[1] = tested on: A. baumannii (ATCC 19606); format: cell-based; conditions: ATCC 19606
Protocol: (§1) Minimum inhibitory concentrations (MICs) on relevant Gram-negative bacteria were determined by broth microdilution, in accordance with CLSI guidelines. Indicated bacteria were taken from glycerol stocks and incubated overnight on blood agar at 37 °C. Well-isolated colonies were taken, suspended in TSB (5 mL), and grown to an OD600 of 0.5. Compounds to be tested were dissolved in DMSO (6.4 mg/mL), diluted in cation-adjusted Mueller–Hinton Broth (CAMHB) (12.5 and 20 μg/mL Mg^2+ and Ca^2+, respectively), and diluted serially on polypropylene microtiter plates. To the diluted compounds (50 μL per well) was added 50 μL of relevant bacterial suspension, to yield a final concentration of 10^6 CFU/mL. Plates were covered by adhesive gas-permeable membranes and incubated at 37 °C. MIC was read out as the lowest concentration that inhibited visual bacterial growth. Shown values are consistent results from at least duplicate experiments.

E. coli (ATCC 25922) = format: cell-based; conditions: ATCC 25922
Protocol: as §1

[2] = tested on: K. pneumoniae (ATCC 13883); format: cell-based; conditions: ATCC 13883
Protocol: as §1

[3] = tested on: P. aeruginosa (ATCC 27853); format: cell-based; conditions: ATCC 27853
Protocol: as §1

[4] = tested on: differentiated conditionally immortalized PTECs (ciPTECs, OAT-1); experiment: ciPTEC toxicity assay (PrestoBlue); format: cell-based, human
Protocol: ciPTECs (OAT-1) cells,[52],[53] grown to 90–100% confluence, were washed by Hanks’ balanced salt solution (HBSS; Gibco, Life Technologies, Paisley, U.K.) and detached by accutase (4 mL) for 5 min at 37 °C. The cells were then suspended in fresh medium (DMEM/F-12, supplemented with 10% fetal calf serum, insulin (5 μg/mL), transferrin (5 μg/mL), selenium (5 μg/mL) hydrocortisone (35 ng/mL), Epidermal Growth Factor (10 ng/mL) and tri-iodothyronine (40 pg/mL)). Cell density was adjusted to 2.0 × 10^5 cells/mL, of which 100 μL was added to each well of a 96-well plate. The cells were incubated for 24 h at 33 °C, followed by 6 days at 37 °C, in a humidified atmosphere containing 5% (v/v) CO2. The medium was refreshed every second or third day.
Compounds were dissolved and serially diluted in serum-free medium. Differentiated cells were washed once with HBSS and serially diluted compounds (80 μL/well) were transferred to the ciPTEC-containing plate. Compounds were incubated for 24 h at 37 °C; the cells were washed by HBSS, followed by incubation with 10% PrestoBlue cell viability reagent (Thermo Scientific, Vienna, Austria) in HBSS at 37 °C in the dark. Fluorescence was recorded (excitation: 530 nm, emission: 590 nm). Raw data are corrected for PrestoBlue background fluorescence and reported relative to the no-treatment control (cells with medium only). Viability data were fitted with GraphPad Prism software (version 5.03; GraphPad Software, La Jolla, CA), by nonlinear regression with 0 as bottom constraint. Presented data are based on triplicates.
Toxicity assessment on PTECs
Table S1. TC50 values for polymyxin analogues. Toxicity assessment on proximal tubular epithelial cells
performed using PrestoBlue™ assay. TC50 values are derived after non-linear regression analysis on cell viability
correspond to data obtained from 2 different batches of cells/analyses on different days. As the value for
polymyxin B differs 2-fold, values in the manuscript are presented relative to the polymyxin B value.
Compound TC50 (µ M) Compound TC50 (µ M)
Polymyxin B 80 Polymyxin B 41
Figure S3. Representative traces of ciPTECs’ viability after incubation with analogues for 24 hours. Shown data are based on […]

| MIC A. baumannii (ATCC 19606) [1] | MIC E. coli (ATCC 25922) (E. coli (ATCC 25922)) | MIC K. pneumoniae (ATCC 13883) [2] | MIC P. aeruginosa (ATCC 27853) [3] | Compound | TC50, Day 1 [4] | ciPTEC Toxicity Index (relative to polymyxin B) [4] | TC50, Day 2 [4] |
| --- | --- | --- | --- | --- | --- | --- | --- |
| >32 µg/mL | 8 µg/mL (≈ 6.77 µM) | 4 µg/mL (≈ 3.38 µM) | 2 µg/mL (≈ 1.69 µM) | CCCCCCSSC[C@H](N)C(=O)N[C@H](C(=O)N[C@@H](CCN)C(=O)N[C@H]1CCNC(=O)[C@H]([C@@H](C)O)NC(=O)[C@H](CCN)NC(=O)[C@H](CCN)NC(=O)[C@H](CC(C)C)NC(=O)[C@@H](Cc2ccccc2)NC(=O)[C@H](CCN)NC1=O)[C@@H](C)O [Compound 17a] (H-C(X4)T[Dab][Dab][Dab][dF]L[Dab][Dab]T; lactam 4-C) | 421 µM | 5.3 |  |
| 1 µg/mL (≈ 0.846 µM) | 2 µg/mL (≈ 1.69 µM) | 0.5 µg/mL (≈ 0.423 µM) | 2 µg/mL (≈ 1.69 µM) | CCCCCCSSC[C@@H](N)C(=O)N[C@H](C(=O)N[C@@H](CCN)C(=O)N[C@H]1CCNC(=O)[C@H]([C@@H](C)O)NC(=O)[C@H](CCN)NC(=O)[C@H](CCN)NC(=O)[C@H](CC(C)C)NC(=O)[C@@H](Cc2ccccc2)NC(=O)[C@H](CCN)NC1=O)[C@@H](C)O [Compound 17b] (H-[dC](X4)T[Dab][Dab][Dab][dF]L[Dab][Dab]T; lactam 4-C) | 240 µM | 3.0 |  |
| >32 µg/mL | 16 µg/mL (≈ 13.7 µM) | 8 µg/mL (≈ 6.85 µM) | 2 µg/mL (≈ 1.71 µM) | CC(C)CCSSC[C@H](N)C(=O)N[C@H](C(=O)N[C@@H](CCN)C(=O)N[C@H]1CCNC(=O)[C@H]([C@@H](C)O)NC(=O)[C@H](CCN)NC(=O)[C@H](CCN)NC(=O)[C@H](CC(C)C)NC(=O)[C@@H](Cc2ccccc2)NC(=O)[C@H](CCN)NC1=O)[C@@H](C)O [Compound 18a] (H-C(S(3-Methylbutyl))T[Dab][Dab][Dab][dF]L[Dab][Dab]T; lactam 4-C) | 786 µM | 9.8 |  |
| 2 µg/mL (≈ 1.67 µM) | 4 µg/mL (≈ 3.34 µM) | 2 µg/mL (≈ 1.67 µM) | 16 µg/mL (≈ 13.4 µM) | CC(C)CCCCSSC[C@@H](N)C(=O)N[C@H](C(=O)N[C@@H](CCN)C(=O)N[C@H]1CCNC(=O)[C@H]([C@@H](C)O)NC(=O)[C@H](CCN)NC(=O)[C@H](CCN)NC(=O)[C@H](CC(C)C)NC(=O)[C@@H](Cc2ccccc2)NC(=O)[C@H](CCN)NC1=O)[C@@H](C)O [Compound 20b] (H-[dC](X1)T[Dab][Dab][Dab][dF]L[Dab][Dab]T; lactam 4-C) |  | 3.3 | 135 µM |
| 1 µg/mL (≈ 0.807 µM) | 2 µg/mL (≈ 1.61 µM) | 1 µg/mL (≈ 0.807 µM) | 2 µg/mL (≈ 1.61 µM) | CCCCCCSSC[C@@H](NC(=O)CN)C(=O)N[C@H](C(=O)N[C@@H](CCN)C(=O)N[C@H]1CCNC(=O)[C@H]([C@@H](C)O)NC(=O)[C@H](CCN)NC(=O)[C@H](CCN)NC(=O)[C@H](CC(C)C)NC(=O)[C@@H](Cc2ccccc2)NC(=O)[C@H](CCN)NC1=O)[C@@H](C)O [Compound 21b] (H-G[dC](X4)T[Dab][Dab][Dab][dF]L[Dab][Dab]T; lactam 5-C) | 357 µM | 4.4 |  |
| 1 µg/mL (≈ 0.816 µM) | 2 µg/mL (≈ 1.63 µM) | 0.5 µg/mL (≈ 0.408 µM) | 1 µg/mL (≈ 0.816 µM) | CC(C)CCSSC[C@@H](NC(=O)CN)C(=O)N[C@H](C(=O)N[C@@H](CCN)C(=O)N[C@H]1CCNC(=O)[C@H]([C@@H](C)O)NC(=O)[C@H](CCN)NC(=O)[C@H](CCN)NC(=O)[C@H](CC(C)C)NC(=O)[C@@H](Cc2ccccc2)NC(=O)[C@H](CCN)NC1=O)[C@@H](C)O [Compound 22b] (H-G[dC](S(3-Methylbutyl))T[Dab][Dab][Dab][dF]L[Dab][Dab]T; lactam 5-C) | 163 µM |  |  |
| 1 µg/mL (≈ 0.79 µM) | 2 µg/mL (≈ 1.58 µM) | 1 µg/mL (≈ 0.79 µM) | 1 µg/mL (≈ 0.79 µM) | CC(C)C[C@@H]1NC(=O)[C@@H](Cc2ccccc2)NC(=O)[C@H](CCN)NC(=O)[C@@H](NC(=O)[C@H](CCN)NC(=O)[C@@H](NC(=O)[C@@H](CSSCCC2CCCCC2)NC(=O)CN)[C@@H](C)O)CCNC(=O)[C@H]([C@@H](C)O)NC(=O)[C@H](CCN)NC(=O)[C@H](CCN)NC1=O [Compound 23b] (H-G[dC](S(2-cyclohexylethyl))T[Dab][Dab][Dab][dF]L[Dab][Dab]T; lactam 5-C) |  |  | 58 µM |
| 1 µg/mL (≈ 0.798 µM) | 2 µg/mL (≈ 1.6 µM) | 1 µg/mL (≈ 0.798 µM) | 2 µg/mL (≈ 1.6 µM) | CC(C)CCCCSSC[C@@H](NC(=O)CN)C(=O)N[C@H](C(=O)N[C@@H](CCN)C(=O)N[C@H]1CCNC(=O)[C@H]([C@@H](C)O)NC(=O)[C@H](CCN)NC(=O)[C@H](CCN)NC(=O)[C@H](CC(C)C)NC(=O)[C@@H](Cc2ccccc2)NC(=O)[C@H](CCN)NC1=O)[C@@H](C)O [Compound 24b] (H-G[dC](X1)T[Dab][Dab][Dab][dF]L[Dab][Dab]T; lactam 5-C) |  |  | 63 µM |
| 1 µg/mL (≈ 0.791 µM) | 4 µg/mL (≈ 3.16 µM) | 1 µg/mL (≈ 0.791 µM) | 2 µg/mL (≈ 1.58 µM) | CC(C)C[C@@H]1NC(=O)[C@@H](Cc2ccccc2)NC(=O)[C@H](CCN)NC(=O)[C@@H](NC(=O)[C@H](CCN)NC(=O)[C@@H](NC(=O)[C@H](N)CSSCc2ccc(-c3ccccc3)cc2)[C@@H](C)O)CCNC(=O)[C@H]([C@@H](C)O)NC(=O)[C@H](CCN)NC(=O)[C@H](CCN)NC1=O [Compound 36] (H-[dC](X5)T[Dab][Dab][Dab][dF]L[Dab][Dab]T; lactam 4-C) |  | 1.7 | 68 µM |
| 1 µg/mL (≈ 0.781 µM) | 4 µg/mL (≈ 3.12 µM) | 1 µg/mL (≈ 0.781 µM) | 4 µg/mL (≈ 3.12 µM) | CC(C)C[C@@H]1NC(=O)[C@@H](Cc2ccccc2)NC(=O)[C@H](CCN)NC(=O)[C@@H](NC(=O)[C@H](CCN)NC(=O)[C@@H](NC(=O)[C@H](N)CSSCc2ccc(Oc3ccccc3)cc2)[C@@H](C)O)CCNC(=O)[C@H]([C@@H](C)O)NC(=O)[C@H](CCN)NC(=O)[C@H](CCN)NC1=O [Compound 37] (H-[dC](X3)T[Dab][Dab][Dab][dF]L[Dab][Dab]T; lactam 4-C) |  | 1.8 | 72 µM |

| Compound | MIC A. baumannii (ATCC 19606) [1] | MIC E. coli (ATCC 25922) (E. coli (ATCC 25922)) | MIC K. pneumoniae (ATCC 13883) [2] | MIC P. aeruginosa (ATCC 27853) [3] | TC50, Day 1 [4] | ciPTEC Toxicity Index (relative to polymyxin B) [4] | TC50, Day 2 [4] |
| --- | --- | --- | --- | --- | --- | --- | --- |
| CC(C)C[C@@H]1NC(=O)[C@@H](Cc2ccccc2)NC(=O)[C@H](CCN)NC(=O)[C@@H](NC(=O)[C@H](CCN)NC(=O)[C@@H](NC(=O)[C@H](N)CSSCCC2CCCCC2)[C@@H](C)O)CCNC(=O)[C@H]([C@@H](C)O)NC(=O)[C@H](CCN)NC(=O)[C@H](CCN)NC1=O [Compound 19b] (H-[dC](S(2-cyclohexylethyl))T[Dab][Dab][Dab][dF]L[Dab][Dab]T; lactam 4-C) | 1 µg/mL (≈ 0.827 µM) | 1 µg/mL (≈ 0.827 µM) | 1 µg/mL (≈ 0.827 µM) | 2 µg/mL (≈ 1.65 µM) |  |  | 51 µM |
